From patent US20240252432A1, “COMPOSITIONS, METHODS AND SYSTEMS FOR AEROSOL DRUG DELIVERY” (ASTRAZENECA PHARMACEUTICALS LP, priority 2021, published 2024)
Where two headings read alike, the source gives them in different places.

How the values were obtained:
[1] = Particle size distribution by laser diffraction; format: physicochemical
Excerpt: When referred to herein, the term “optical diameter” indicates the size of a particle as measured by the Fraunhofer diffraction mode using a laser diffraction particle size analyzer equipped with a dry powder dispenser (e.g., Sympatec GmbH, Clasthal-Zellerfeld, Germany).
Suspending particles were manufactured by spray drying an emulsion of PFOB (perfluorooctyl bromide) and water stabilized by DSPC (1,2-Distearoyl-sn-Glycero-3-Phosphocholine). […] The particle size distribution of the suspending particles was determined by laser diffraction.
Active agent particles formed of budesonide, 16,17-(butylidenebis(oxy))-11,21-dihydroxy-(11-β,16-α)-pregna-1,4-diene-3,20-dione, were formed by micronizing budesonide using a jet mill. The particle size distribution of the budesonide (BD) was determined by laser diffraction.

[2] = Aerodynamic particle size distribution by NGI of BFF formulations (Example 4); format: physicochemical; settings: dual co-suspension of budesonide and formoterol in HFO-1234ze(E); stored valve down, protected, 25° C./60% RH
[3] = cited from earlier work
[4] = Aerodynamic particle size distribution by NGI of BDA formulations (Example 5); format: physicochemical; settings: dual co-suspension of budesonide and albuterol in HFO-1234ze(E); stored valve down, protected, 25° C./60% RH

With COc1ccc(CC(C)NCC(O)c2ccc(O)c(NC=O)c2)cc1.O=C(O)/C=C/C(=O)O (racemic) [formoterol fumarate, (±)-2-hydroxy-5-[(1RS)-1-hydroxy-2-[[(1RS)-2-(4-methoxyphenyl)-1-methylethyl]-amino]ethyl]formanilide fumarate] the “optical diameter below which 50% by volume of the particles lie” value [1] was “smaller than 1.6 μm” and the “optical diameter below which 90% by volume of the particles lie” value [1] was “smaller than 3.9 μm”.
In the case of CCCCCCCCCCCCCCCCCC(=O)OC[C@H](COP(=O)([O-])OCC[N+](C)(C)C)OC(=O)CCCCCCCCCCCCCCCCC [DSPC, 1,2-Distearoyl-sn-glycero-3-phosphocholine], the “stability of aPSD by NGI” value [2] is reported as “stable for twelve months”.
In the case of FCC(F)(F)F [HFA-134a, 1,1,1,2-tetrafluoroethane], the “Water Solubility in Propellant” value ([3]; @25) is listed as 1100@25 ppm.
In the case of FC(C(F)(F)F)C(F)(F)F [HFA-227ea, 1,1,1,2,3,3,3-Heptafluoropropane], the “Water Solubility in Propellant” value ([3]; @25) is listed as 610@25 ppm.
In the case of CC(F)F [HFC-152a, 1,1-Difluoroethane], the “Water Solubility in Propellant” value ([3]; @25) is listed as 2100@25 ppm.
In the case of C=C(F)C(F)(F)F [HFO-1234yf, 2,3,3,3-Tetrafluoropropene], the “Water Solubility in Propellant” value ([3]; @24) is listed as 200@24 ppm.
For FC=CC(F)(F)F [HFO-1234ze, 1,3,3,3-tetrafluoropropene], the “Water Solubility in Propellant” value ([3]; @20) is given as 225@20 ppm.
For CCCC1O[C@@H]2C[C@H]3[C@@H]4CCC5=CC(=O)C=C[C@]5(C)[C@H]4[C@@H](O)C[C@]3(C)[C@]2(C(=O)CO)O1 (stereo partly drawn) [budesonide, 16,17-(butylidenebis(oxy))-11,21-dihydroxy-(11-β,16-α)-pregna-1,4-diene-3,20-dione], the “stability of aPSD by NGI” value [2] was “stable for twelve months” and the “stability of aPSD by NGI” value [4] was “stable for twelve months”.
For C[N+]1(C)CCC(OC(=O)C(O)(c2ccccc2)C2CCCC2)C1.[Br-] (centres unmarked) [glycopyrrolate, Pyrrolidinium, 3-((cyclopentylhydroxyphenylacetyl)oxy)-1,1-dimethyl-, bromide], the “optical diameter below which 50% by volume of the particles lie” value [1] was “smaller than 2.1 μm” and the “optical diameter below which 90% by volume of the particles lie” value [1] was “smaller than 5 μm”.
With albuterol sulfate the “optical diameter below which 50% by volume of the particles lie” value [1] was “smaller than 1.5 μm” and the “optical diameter below which 90% by volume of the particles lie” value [1] was “smaller than 3.3 μm”.
